The term pKa denotes the negative logarithm of the acid dissociation constant. Low values mean a stronger acid or weaker base, high ones a weaker acid or stronger base.

Consider two compounds from patent US10526339B2, “Substituted glucosepanes and compositions thereof” (YALE UNIVERSITY, priority 2015, dated 2020).

A short description of data set [1]: Glucosepane pKa study (UV pH titration). The text has this: The inventors next took advantage of glucospane's intrinsic spectral properties to measure the pKa of the iso-imidazole core.
Data set [2] in a line: Hydrogen/deuterium exchange at C-8a in D2O. The class given is physicochemical. The conditions noted are these: basic conditions (aqueous NaOD), either epimer.
Data set [3] is described as follows: EXSY NOESY conformational exchange (E/Z isomerization). It counts as physicochemical. From the text: With synthetic glucosepane (5) in hand, we next investigated its structural features using multidimensional NMR techniques. […] Indeed, although the original glucosepane isolation report did note the possibility of E/Z isomerism in acyclic 2-amino imidazoles, the presence of these exchange peaks in the case of glucosepane have previously been incorrectly attributed to stereoisomerism at the C-8a stereocenter.^(35) Using an EXSY (EXchange SpectroscopY) NOESY sequence,^(34) the inventors were able to calculate an approximate rate for this conformational exchange process on the order of 3 s^−1 in D2O.^28
The integral ratios and tm were used to calculate an approximate rate by the following formula:^5
[formula] Xa=mole fraction of conformer A Xb=mole fraction of conformer B Iaa=integral intensity for diagonal peak (conformer A) Ibb=integral intensity for diagonal peak (conformer B) Iab and Iba=integral intensity for cross-peak Sample calculation with the data provided above: […]

Where only a bound is given, the exact number is not on record here.

Compound `N[C@@H](CCCCN1C[C@@H](O)[C@@H](O)C[C@@H]2N=C(NCCC[C@H](N)C(=O)O)N=C21)C(=O)O` (stereo in doubt) [Compound 5, Glucosepane Tris-Trifluoroacetate] had a pKa in data set [1] of roughly 12. Besides, the “time for quantitative hydrogen/deuterium exchange at the C-8a H-atom” value in data set [2] is reported as less than 60 min. In data set [3] (in D2O, EXSY NOESY), the “approximate rate of conformational exchange (E/Z isomerization about exocyclic C2-N bond)” value is roughly 3 s⁻¹.
Turning to `N[C@@H](CCCCN1C[C@@H](O)[C@@H](O)C[C@@H]2N=C(NCCC[C@H](N)C(=O)O)N=C21)C(=O)O` [Compound 5, Glucosepane Tris-Trifluoroacetate], the “k” value in data set [3] (sample calculation from 2D NOESY integrals, tm 1.00 sec) is 2.89 s⁻¹.
